Results from patent US20250374926A1, “NOVEL DERIVATIVES OF NON-CODED AMINO ACIDS AND THEIR USE IN CROP PROTECTION” (FORTEPHEST LTD., priority 2022, published 2025).

Experiments:
Format in all cases: in vivo
[1] = tested on: Lettuce seeds; test: Filter paper bioassay on germination and early development of Lettuce seeds; details: lowest concentration causing malformation of radicle or shoots, visually assessed six days after beginning, 0 to 1 mmol/l; for minimal effective concentration: 144 h, read-out: MEC, score (Minimal Effective Concentration, activity score) (converted)
Method: Materials: Seeds of Lettuce R. (Super-Jericho, non-sterilized) were obtained from Ben Shahar Moshe Ltd., 99% purity. The test compounds listed in Table 3 below were synthesized de novo or purchased from different vendors. Bioassays: Filter Paper Bioassays with Lettuce seeds were performed following Bertin et al. 2009 with modifications as described below. Seeds were placed on Whatman no. 1 filter paper (Whatman, Middlesex, U.K.) in Petri dishes (10 seeds per plate) with 2.0 ml of an aqueous solution of test material in a concentration ranging from 0 (control) to 1 mmol/l. The Petri dishes were arranged in a tray tilted at a 45-degree angle and were kept in the dark for 48 hours. Then trays with plates were transferred to the growth chamber with a 6/18 dark/light cycle for four days. Each experiment was performed in at least two repeats.
The development of plants' radicles and shoots was visually assessed six days after the beginning of the test to determine the Minimal Effective Concentration (MEC) of a test material. In the context of the invention, MEC is defined as the lowest concentration level of a test material that caused deviation (malformation of radicle or shoots).

[2] = tested on: Amaranth; test: Post-emergence herbicidal effect on potted weeds; details: 2-3 true leaves, up to 5 mg/pot, scale 0 (dead plants) to 5 (healthy, as control)
Method: (§1) Weed seeds were sawn in 0.3-liter pots containing medium-heavy clay-loam soil from organic fields (55% clay, 23% silt, 20% sand, 2% organic matter, pH 7.1). The experiment was conducted in a completely randomized design. Each treatment was replicated three times (3 pots). Each compound was typically tested on a weed panel which included Amaranth, Abutilon, Malva, Silybum, and Sinapis. The herbicides were applied at doses from 0 (control) to 5 mg/pot. The herbicides were applied on grown plants at stage 2-3 true leaves (post-emergence treatment). The plants were grown in the mesh house during the entire experiment. Plant development at 6, 12, 19, 26, and 32 days after application (DAA) was evaluated on a scale of 0 to 5, in which 0 represents dead plants, and 5 represents healthy plants similar or not different from Control. In the context of the invention, the herbicidal effect was expressed as a score calculated as an average of assessments of plants' vigor, height, and leaf color.

[3] = tested on: Malva; test: Post-emergence herbicidal effect on potted weeds; details: 2-3 true leaves, up to 5 mg/pot, scale 0 (dead plants) to 5 (healthy, as control)
Method: as §1

[4] = tested on: Sinapis; test: Post-emergence herbicidal effect on potted weeds; details: 2-3 true leaves, up to 5 mg/pot, scale 0 (dead plants) to 5 (healthy, as control)
Method: as §1

[5] = tested on: Abutilon; test: Post-emergence herbicidal effect on potted weeds; details: 2-3 true leaves, up to 5 mg/pot, scale 0 (dead plants) to 5 (healthy, as control)
Method: as §1

[6] = tested on: Solanum; test: Post-emergence herbicidal effect on potted weeds; details: 2-3 true leaves, up to 5 mg/pot, scale 0 (dead plants) to 5 (healthy, as control)
Method: as §1

[7] = tested on: Trifolium; test: Post-emergence herbicidal effect on potted weeds; details: 2-3 true leaves, up to 5 mg/pot, scale 0 (dead plants) to 5 (healthy, as control)
Method: as §1

[8] = tested on: Lettuce; test: Post-emergence herbicidal effect on potted weeds; details: 2-3 true leaves, up to 5 mg/pot, scale 0 (dead plants) to 5 (healthy, as control)
Method: as §1

[9] = tested on: Verbesina; test: Post-emergence herbicidal effect on potted weeds; details: 2-3 true leaves, up to 5 mg/pot, scale 0 (dead plants) to 5 (healthy, as control)
Method: as §1

[10] = tested on: Lactuca; test: Post-emergence herbicidal effect on potted weeds; details: 2-3 true leaves, up to 5 mg/pot, scale 0 (dead plants) to 5 (healthy, as control)
Method: as §1

[11] = tested on: Silybum; test: Post-emergence herbicidal effect on potted weeds; details: 2-3 true leaves, up to 5 mg/pot, scale 0 (dead plants) to 5 (healthy, as control)
Method: as §1

Row | Structure (SMILES) | minimal effective concentration [1] [µM] | Average Herbicidal Effect, score [2] | Average Herbicidal Effect, score [3] | Average Herbicidal Effect, score [4] | Average Herbicidal Effect, score [5] | Average Herbicidal Effect, score [6] | Average Herbicidal Effect, score [7] | Average Herbicidal Effect, score [8] | Average Herbicidal Effect, score [9] | Average Herbicidal Effect, score [10] | Average Herbicidal Effect, score [11] | activity score [1] [score]
1 | O=C(O)COc1ccc(F)c(Br)n1 [compound 7157, [(6-bromo-5-fluoropyridin-2-yl)oxy]acetic acid] | 1 | 0 | 1 | 1 | 3 | 0 | 2 | 1 | 0 | 2 | 1 | 
2 | CCOC(=O)COc1ccc(F)c(Br)n1 [compound 7118, ethyl [(6-bromo-5-fluoropyridin-2-yl)oxy]acetate] | < 1 | 1 | 1 | 1 | 4 | 0 | 2 | 5 | 2 | 3 | 1 | 
3 | CCOCCOCCOC(=O)COc1ccc(F)c(Br)n1 [compound 7156, 2-(2-ethoxyethoxy)ethyl 2-[(6-bromo-5-fluoropyridin-2-yl)oxy]acetate] |  | 1 | 1 | 1 | 1 | 0 | 2 | 0 | 1 | 2 | 1 | 5.5
4 | CCOC(=O)CSc1ccc(F)c(Br)n1 [compound 7114, ethyl 2-[(6-bromo-5-fluoropyridin-2-yl)sulfanyl]acetate] | < 1 | 3 | 4 | 4 | 5 |  | 4 |  |  | 5 | 5 | 
5 | O=C(O)CCCSc1ccc(Br)c(Br)n1 [compound 7174, 4-[(5,6-dibromopyridin-2-yl)sulfanyl]butanoic acid] | < 1 |  |  |  |  |  |  |  |  |  |  | 
6 | O=C(O)CS(=O)(=O)c1csc(Cl)n1 [compound 5851, (2-chloro-1,3-thiazol-4-sulfonyl)acetic acid] | 1 |  |  |  |  |  |  |  |  |  |  | 
